From patent US20260022142A1, “MACROCYCLIC IMMUNOMODULATORS” (Bristol-Myers Squibb Company, priority 2022, published 2026)
pIC50: −log10 of the molar value. Numbered stars: 1 amine (or outer) side, 2 acyl side, 3 side chain; on linkers, the order of the positions; unused ones are H or OH. Bridge positions count the residues as written; N and C are the ends. Square brackets hold non-standard residues; d marks the D form. Peptide text beside a SMILES is read from it. * marks the point of attachment. ξ: configuration not given here. Phe(4-COOH) = N[C@@H](Cc1ccc(C(=O)O)cc1)C(=O)O; Bip = N[C@@H](Cc1ccc(-c2ccccc2)cc1)C(=O)O; Phe(3-Me) = Cc1cccc(C[C@H](N)C(=O)O)c1; βAsp = O=C(O)[C@H](CC(=O)[*:2])N[*:1]; NH(CH2)12COOH = O=C(O)CCCCCCCCCCCCN*; PEG6 = NCCOCCOCCOCCOCCOCCOCCC(=O)O; X12 = CC(N)[C@H](N[*:1])C(=O)[*:2]; hArg = N=C(N)NCCCC[C@H](N)C(=O)O; 4Pal = N[C@@H](Cc1ccncc1)C(=O)O; Cha = N[C@@H](CC1CCCCC1)C(=O)O; Cit = NC(=O)NCCC[C@H](N)C(=O)O; Ile(3ξ) = CCC(C)[C@H](N)C(=O)O; Thr(3ξ) = CC(O)[C@H](N)C(=O)O; 12Ado = NCCCCCCCCCCCC(=O)O; Carboxymethyl = O=C(O)C*; Orn = NCCC[C@H](N)C(=O)O; Aun = NCCCCCCCCCCC(=O)O; Dab = NCC[C@H](N)C(=O)O; AEEA = NCCOCCOCC(=O)O

Target: T1, PD-1/PD-L1 interaction (PE-labeled human PD-L1-Ig binding to Jurkat cell line over-expressing human PD-1) (Homo sapiens, UniProt Q15116)
T1 construct: expressed in transfected cells; host or cells: Jurkat
Assay: Jurkat-PD-1 Cell Binding High-Content Screening Assay (CBA)
Assay type: cell-based
Conditions: Jurkat cell line over-expressing human PD-1; PE-labeled PD-L1-Ig 20 nM final; read-out: Jurkat hPD1-PDL1 IC50
In short: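 First, compound is added to PD-1-expressing Jurkat cells in serum-containing DMEM and left 2 h at 37° C. Next, PE-conjugated PD-L1-Ig is introduced at 20 nM final concentration for 1 hour. Finally, cells are fixed in 4% paraformaldehyde with Hoechst 33342, washed and imaged.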

T1 sequence (Q15116 25-288): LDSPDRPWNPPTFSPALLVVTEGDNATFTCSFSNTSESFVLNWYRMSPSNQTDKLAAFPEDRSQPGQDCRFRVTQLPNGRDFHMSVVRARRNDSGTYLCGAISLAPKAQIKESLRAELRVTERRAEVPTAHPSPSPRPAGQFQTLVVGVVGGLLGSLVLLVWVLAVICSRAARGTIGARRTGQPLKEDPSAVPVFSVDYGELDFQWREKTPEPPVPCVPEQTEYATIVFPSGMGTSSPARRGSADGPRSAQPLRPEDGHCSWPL

CCC(C)[C@@H]1NC(=O)[C@H](Cc2ccc(-c3ccccc3)cc2)NC(=O)[C@H](C(C)C)NC(=O)[C@H](Cc2c[nH]c3ccccc23)NC(=O)[C@H](CC(=O)O)NC(=O)[C@H](Cc2ccc(C(=O)O)cc2)NC(=O)[C@H](Cc2ccncc2)NC(=O)CSC[C@@H](C(=O)N[C@@H](CC(N)=O)C(=O)NCCOCCOCC(=O)N[C@@H](CCCN)C(=O)NCCCCCCCCCCC(=O)O)NC(=O)[C@H](CO)NC(=O)[C@H](C(C)C)NC(=O)[C@H](CC2CCCCC2)NC(=O)[C@H](CCN)NC(=O)[C@@H](CC(C)C)NC(=O)[C@H](CCCN)NC1=O (stereo partly drawn) [Compound 3039] ({CH2CO}-[4Pal][Phe(4-COOH)]DWV[Bip][Ile(3ξ)][Orn][dL][Dab][Cha]VSCN[AEEA][Orn][Aun]-OH; thioether N-14)
pIC50: 7.98

CCC(C)[C@@H]1NC(=O)[C@H](Cc2ccc(-c3ccccc3)cc2)NC(=O)[C@H](C(C)C)NC(=O)[C@H](Cc2c[nH]c3ccccc23)NC(=O)[C@H](CC(=O)O)NC(=O)[C@H](Cc2ccncc2)NC(=O)[C@H](C(C)O)NC(=O)CSC[C@@H](C(=O)N[C@@H](CC(N)=O)C(=O)NCCOCCOCC(=O)N[C@@H](CCCN)C(=O)NCCCCCCCCCCCCC(=O)O)NC(=O)[C@H](CO)NC(=O)[C@H](C(C)C)NC(=O)[C@H](CC2CCCCC2)NC(=O)[C@H](CCN)NC(=O)[C@@H](CC(C)C)NC(=O)[C@H](CCCN)NC1=O (stereo partly drawn) [Compound 3040] ({CH2CO}-[Thr(3ξ)][4Pal]DWV[Bip][Ile(3ξ)][Orn][dL][Dab][Cha]VSCN[AEEA][Orn]-{NH(CH2)12COOH}; thioether N-14)
pIC50: 7.82

CC(C)C[C@H]1NC(=O)[C@H](CCCN)NC(=O)[C@H](C(C)C)NC(=O)[C@H](Cc2ccc(-c3ccccc3)cc2)NC(=O)[C@H](C(C)C)NC(=O)[C@H](Cc2c[nH]c3ccccc23)NC(=O)[C@H](CC(=O)O)NC(=O)[C@H](Cc2ccc(OCC(=O)O)cc2)NC(=O)[C@H](C(C)O)NC(=O)CSC[C@@H](C(=O)NCCOCCOCC(=O)N[C@@H](CC(=O)NCCCCCCCCCCCC(=O)O)C(=O)O)NC(=O)[C@H](CO)NC(=O)[C@H](C(C)C)NC(=O)[C@H](CC2CCCCC2)NC(=O)[C@H](CCN)NC1=O (stereo partly drawn) [Compound 3041] ({CH2CO}-[Thr(3ξ)]Y(Carboxymethyl)DWV[Bip]V[Orn][dL][Dab][Cha]VSC[AEEA][βAsp][12Ado]-OH; thioether N-14)
pIC50: 7.90

CC(C)C[C@H]1NC(=O)[C@H](CCCN)NC(=O)[C@H](C(C)C)NC(=O)[C@H](Cc2ccc(-c3ccccc3)cc2)NC(=O)[C@H](C(C)C)NC(=O)[C@H](Cc2c[nH]c3ccccc23)NC(=O)[C@H](CC(=O)O)NC(=O)[C@H](Cc2ccc(C(=O)O)cc2)NC(=O)[C@H](Cc2ccc(OCC(=O)O)cc2)NC(=O)CSC[C@@H](C(=O)NCCOCCOCC(=O)N[C@@H](CC(=O)NCCCCCCCCCCCC(=O)O)C(=O)O)NC(=O)[C@H](C(C)O)NC(=O)[C@H](C(C)C)NC(=O)[C@H](CC2CCCCC2)NC(=O)[C@H](CCN)NC1=O (stereo partly drawn) [Compound 3042] ({CH2CO}-Y(Carboxymethyl)[Phe(4-COOH)]DWV[Bip]V[Orn][dL][Dab][Cha]V[Thr(3ξ)]C[AEEA][βAsp][12Ado]-OH; thioether N-14)
pIC50: 7.94

CC(C)C[C@H]1NC(=O)[C@H](CCCN)NC(=O)[C@H](C(C)C)NC(=O)[C@H](Cc2ccc(-c3ccccc3)cc2)NC(=O)[C@H](C(C)C)NC(=O)[C@H](Cc2c[nH]c3ccccc23)NC(=O)[C@H](CC(=O)O)NC(=O)[C@H](Cc2ccc(OCC(=O)O)cc2)NC(=O)[C@H](CCCCNC(=N)N)NC(=O)CSC[C@@H](C(=O)NCC(=O)NCCOCCOCC(=O)NCCCCCCCCCCCCC(=O)O)NC(=O)[C@H](CO)NC(=O)[C@H](C(C)C)NC(=O)[C@H](CC2CCCCC2)NC(=O)[C@H](CCN)NC1=O [Compound 3043] ({CH2CO}-[hArg]Y(Carboxymethyl)DWV[Bip]V[Orn][dL][Dab][Cha]VSCG[AEEA]-{NH(CH2)12COOH}; thioether N-14)
pIC50: 7.81

CC(C)C[C@H]1NC(=O)[C@H](CCCN)NC(=O)[C@H](CCC(=O)O)NC(=O)[C@H](Cc2ccc(-c3ccccc3)cc2)NC(=O)[C@H](C(C)C)NC(=O)[C@H](Cc2c[nH]c3ccccc23)NC(=O)[C@H](CC(=O)O)NC(=O)[C@H](Cc2ccc(C(=O)O)cc2)NC(=O)[C@H](Cc2ccc(OCC(=O)O)cc2)NC(=O)CSC[C@@H](C(=O)N[C@@H](CC(N)=O)C(=O)NCCOCCOCCOCCOCCOCCOCCC(=O)N[C@@H](CCCN)C(=O)NCCCCCCCCCCCC(=O)O)NC(=O)[C@H](CO)NC(=O)[C@H](C(C)C)NC(=O)[C@H](CC2CCCCC2)NC(=O)[C@H](CCN)NC1=O [Compound 3045] ({CH2CO}-Y(Carboxymethyl)[Phe(4-COOH)]DWV[Bip]E[Orn][dL][Dab][Cha]VSCN[PEG6][Orn][12Ado]-OH; thioether N-14)
pIC50: 8.19

CC(C)C[C@H]1NC(=O)[C@H](CCCN)NC(=O)[C@H](CCC(=O)O)NC(=O)[C@H](Cc2ccc(-c3ccccc3)cc2)NC(=O)[C@H](C(C)C)NC(=O)[C@H](Cc2c[nH]c3ccccc23)NC(=O)[C@H](CC(=O)O)NC(=O)[C@H](Cc2ccc(C(=O)O)cc2)NC(=O)[C@H](C(C)N)NC(=O)CSC[C@@H](C(=O)N[C@@H](CC(N)=O)C(=O)NCCOCCOCCOCCOCCOCCOCCC(=O)N[C@@H](CCCN)C(=O)NCCCCCCCCCCCC(=O)O)NC(=O)[C@H](CO)NC(=O)[C@H](C(C)C)NC(=O)[C@H](CC2CCCCC2)NC(=O)[C@H](CCN)NC1=O (stereo partly drawn) [Compound 3046] ({CH2CO}-[X12][Phe(4-COOH)]DWV[Bip]E[Orn][dL][Dab][Cha]VSCN[PEG6][Orn][12Ado]-OH; thioether N-14)
pIC50: 7.88

Cc1cccc(C[C@@H]2NC(=O)[C@H](CC(=O)O)NC(=O)[C@H](Cc3ccc(OCC(=O)O)cc3)NC(=O)[C@H](CCN)NC(=O)CSC[C@@H](C(=O)NCCOCCOCC(=O)NCCCCCCCCCCC(=O)O)NC(=O)[C@H](C(C)O)NC(=O)[C@H](C(C)C)NC(=O)[C@H](CC3CCCCC3)NC(=O)[C@H](CCN)NC(=O)[C@@H](CC(C)C)NC(=O)[C@H](CCCN)NC(=O)[C@H](CCCNC(N)=O)NC(=O)[C@H](Cc3ccc(-c4ccccc4)cc3)NC(=O)[C@H](C(C)C)NC2=O)c1 (stereo partly drawn) [Compound 3047] ({CH2CO}-[Dab]Y(Carboxymethyl)D[Phe(3-Me)]V[Bip][Cit][Orn][dL][Dab][Cha]V[Thr(3ξ)]C[AEEA][Aun]-OH; thioether N-14)
pIC50: 7.88

CC(C)C[C@H]1NC(=O)[C@H](CCCN)NC(=O)[C@H](C(C)C)NC(=O)[C@H](Cc2ccc(-c3ccccc3)cc2)NC(=O)[C@H](C(C)C)NC(=O)[C@H](Cc2c[nH]c3ccccc23)NC(=O)[C@H](CC(=O)O)NC(=O)[C@H](Cc2ccc(OCC(=O)O)cc2)NC(=O)[C@H](Cc2ccncc2)NC(=O)CSC[C@@H](C(=O)NCCOCCOCC(=O)NCCCCCCCCCCC(=O)O)NC(=O)[C@H](C(C)O)NC(=O)[C@H](C(C)C)NC(=O)[C@H](CC2CCCCC2)NC(=O)[C@H](CCN)NC1=O (stereo partly drawn) [Compound 3048] ({CH2CO}-[4Pal]Y(Carboxymethyl)DWV[Bip]V[Orn][dL][Dab][Cha]V[Thr(3ξ)]C[AEEA][Aun]-OH; thioether N-14)
pIC50: 7.63

Cc1cccc(C[C@@H]2NC(=O)[C@H](CC(=O)O)NC(=O)[C@H](Cc3ccc(OCC(=O)O)cc3)NC(=O)[C@H](CCCNC(N)=O)NC(=O)CSC[C@@H](C(=O)N[C@@H](CCCN)C(=O)NCCCCCCCCCCC(=O)O)NC(=O)[C@H](CO)NC(=O)[C@H](C(C)C)NC(=O)[C@H](CC3CCCCC3)NC(=O)[C@H](CCN)NC(=O)[C@@H](CC(C)C)NC(=O)[C@H](CCCN)NC(=O)[C@H](C(C)C)NC(=O)[C@H](Cc3ccc(-c4ccccc4)cc3)NC(=O)[C@H](C(C)C)NC2=O)c1 [Compound 3049] ({CH2CO}-[Cit]Y(Carboxymethyl)D[Phe(3-Me)]V[Bip]V[Orn][dL][Dab][Cha]VSC[Orn][Aun]-OH; thioether N-14)
pIC50: 7.40

CC(C)C[C@H]1NC(=O)[C@H](CCCN)NC(=O)[C@H](C(C)C)NC(=O)[C@H](Cc2ccc(-c3ccccc3)cc2)NC(=O)[C@H](C(C)C)NC(=O)[C@H](Cc2c[nH]c3ccccc23)NC(=O)[C@H](CC(=O)O)NC(=O)[C@H](Cc2ccc(OCC(=O)O)cc2)NC(=O)[C@H](C(C)O)NC(=O)CSC[C@@H](C(=O)NCCOCCOCC(=O)N[C@@H](CCCCN)C(=O)NCCCCCCCCCCC(=O)O)NC(=O)[C@H](C(C)O)NC(=O)[C@H](C(C)C)NC(=O)[C@H](CC2CCCCC2)NC(=O)[C@H](CCN)NC1=O (stereo partly drawn) [Compound 3052] ({CH2CO}-[Thr(3ξ)]Y(Carboxymethyl)DWV[Bip]V[Orn][dL][Dab][Cha]V[Thr(3ξ)]C[AEEA]K[Aun]-OH; thioether N-14)
pIC50: 8.00

CC(C)C[C@H]1NC(=O)[C@H](CCCN)NC(=O)[C@H](C(C)C)NC(=O)[C@H](Cc2ccc(-c3ccccc3)cc2)NC(=O)[C@H](C(C)C)NC(=O)[C@H](Cc2c[nH]c3ccccc23)NC(=O)[C@H](CC(=O)O)NC(=O)[C@H](Cc2ccc(OCC(=O)O)cc2)NC(=O)[C@H](C(C)O)NC(=O)CSC[C@@H](C(=O)N[C@H](CC(N)=O)C(=O)NCCOCCOCC(=O)NCCCCCCCCCCC(=O)O)NC(=O)[C@H](CO)NC(=O)[C@H](C(C)C)NC(=O)[C@H](CC2CCCCC2)NC(=O)[C@H](CCN)NC1=O (stereo partly drawn) [Compound 3053] ({CH2CO}-[Thr(3ξ)]Y(Carboxymethyl)DWV[Bip]V[Orn][dL][Dab][Cha]VSC[dN][AEEA][Aun]-OH; thioether N-14)
pIC50: 8.06

CC(C)C[C@H]1NC(=O)[C@H](CCCN)NC(=O)[C@H](C(C)C)NC(=O)[C@H](Cc2ccc(-c3ccccc3)cc2)NC(=O)[C@H](C(C)C)NC(=O)[C@H](Cc2c[nH]c3ccccc23)NC(=O)[C@H](CC(=O)O)NC(=O)[C@H](Cc2ccc(OCC(=O)O)cc2)NC(=O)[C@H](Cc2c[nH]cn2)NC(=O)CSC[C@@H](C(=O)N[C@H](C)C(=O)NCCOCCOCC(=O)NCCCCCCCCCCC(=O)O)NC(=O)[C@H](C(C)O)NC(=O)[C@H](C(C)C)NC(=O)[C@H](CC2CCCCC2)NC(=O)[C@H](CCN)NC1=O (stereo partly drawn) [Compound 3054] ({CH2CO}-HY(Carboxymethyl)DWV[Bip]V[Orn][dL][Dab][Cha]V[Thr(3ξ)]C[dA][AEEA][Aun]-OH; thioether N-14)
pIC50: 7.84
